# Laboratory results published in PMC13168289, “Potent acridone antimalarial against all three life stages of Plasmodium” (Nature Communications, 2026).
# “And” between values parts separate entries of the source, which are not always exact repeats. Equal entries are not always repeated.
# Columns and labels:
# [1] = system: P. cynomolgi hypnozoites and schizonts; design: method as in PMID: 21483865; details: primary hepatocyte P. cynomolgi assays; ref PMID: 21483865; read-out: in vitro liver-stage IC50; cited from earlier work
# [2] = system: P. falciparum Dd2, DR1 and DR4; assay: SYBR Green 72 h drug susceptibility assay against ART-resistant clones; type: cell-based, Plasmodium falciparum
# Protocol: Drug susceptibility assay against ART-resistant P. falciparum clones was performed using a SYBR Green-based assay[44],[74]. Synchronized ring stage parasites were cultured for 72 h in the presence of the test drug. The assay was performed in 96-well plates at 2% hematocrit and 0.5% starting parasitemia. Each experiment was conducted in triplicate and repeated with three biological replicates. Parasite growth at 72 h was quantified via SYBR Green I staining. The obtained counts were plotted against the logarithm of the compound concentration, and a curve was fitted with non-linear regression (sigmoidal dose-response/variable slope equation) to determine IC50 (half-maximal inhibitory concentration) values. The data was analyzed using GraphPad Prism software 8.0.
# [3] = system: blood-stage P. yoelii; assay: single-dose cure murine model, oral; type: in vivo, P. yoelii in CF1 mice
# Source text: Animals were housed at the VAPORHCS in Thoren Maxi-Miser microisolator cages (78 sq. in. floor space) with a maximum density of five females or four males per cage. Cages were maintained on a 12-h light/dark cycle and provided with autoclaved nesting materials (nestlets) for environmental enrichment. All mice had ad libitum access to food and water. Four- to five-week-old female and male outbred CF1 mice (Charles River Laboratories, Raleigh, NC, USA) were randomly assigned to treatment and control groups using a simple randomization procedure (e.g., computer-generated random numbers) to ensure balanced distribution of baseline body weights and starting parasitemia levels across all cohorts. Groups of four mice (n = 4, mean body weight of each group was ~30 g) were infected intravenously with 3.5 × 10^4 P. yoelii (Kenya strain, MRA-428) from a donor animal. Drug administration commenced the day after the animals were inoculated (Day 1). The test drug or the drug combination was dissolved in PEG-400 and administered by oral gavage once daily for 4 successive days in the 4-day suppression model, but only once on Day 1 in the single-dose cure model. Blood was collected via the tail vein with the aid of a syringe needle on Day 5 and then at weekly intervals through Day 28. Blood films were Giemsa-stained and examined microscopically to determine the level of parasitemia. All mice were observed daily to assess clinical signs. Animals with observable parasitemia following the experiments were euthanized; animals cleared of parasitemia from their bloodstream were observed daily with assessment of parasitemia performed weekly until Day 28, at which point, the animal(s) were scored as cured of the infection and then humanely euthanized. All treated mice with a negative smear on Day 28 were considered cured (100% protection). […]
# [4] = system: P. falciparum NF54 gametocytes; assay: sexual blood-stage gametocyte assay; type: cell-based, Plasmodium falciparum; details: Days 5 to 7, read Day 14
# Protocol: P. falciparum NF54 was used to generate gametocytes. The erythrocytic stage of the parasite was cultured following standard laboratory protocols. Gametocyte production was carried out as described by Miura et al[34]. […] Cultures were maintained in washed human O^+ red blood cells at a final hematocrit of 2%[76]. For gametocyte cultures, parasites were induced using serum-free human media. Gametocyte cultures were maintained in washed human O^+ red blood cells at a final hematocrit of 5%. […] All cultures were maintained at 37 °C in a Billups chamber under a gas mixture of 90% N2, 5% CO2, and 5% O2, with media changes daily. […] DMSO diluted in gametocyte media was used as the control. […] Gametocytemia was assessed on Day 14 post-induction using blood smears stained with the Hema 3^TM Manual Staining System (Fisher) and analyzed by light microscopy.
# [5] = system: luciferase-expressing P. berghei sporozoites; assay: liver-stage prophylaxis murine model with IVIS bioluminescence imaging; type: in vivo, P. berghei in Albino C57BL/6 mice; details: Days -1, 0, 1
# Source text: Four- to six-week-old female inbred Albino C57BL/6 mice (18–22 g, Jackson Laboratories, Bar Harbor, ME, USA) were utilized. Animals were assigned unique study numbers via ear tags and cage cards and were randomly assigned to treatment or control groups (n = 5 per group) using a weigh-stratified randomization procedure. All animals were quarantined and acclimatized for 7 days prior to study initiation and were housed in a 12:12 light/dark cycle with food and water provided ad libitum. Mice were infected intravenously with 10^4 luciferase-expressing P. berghei sporozoites (ANKA strain) via tail vein injection on Day 0. Drugs were dissolved in PEG-400 and administered orally once per day on Day -1, Day 0, and Day 1. […] Infection reduction was assessed by comparing the bioluminescence signals emitted by treated groups with signals emitted by the vehicle control-treated group at that time point. Later blood-stage parasitemia was determined via flow cytometry. […] Long-term blood-stage efficacy was evaluated starting on Day 6 post-infection and continued for up to 31 days using flow cytometry.
# In vivo antimalarial efficacy studies were performed as described above.
# [6] = 7-day repeat dose toxicology study; type: in vivo, Sprague Dawley rats; details: 25, 100, 400 mg/kg daily oral for 7 days
# Protocol: In vivo toxicology and TK studies in rats were performed at SRI International, using the well-established methods[83]–[85]. Rats were housed in microisolator cages with hardwood chip bedding (Sani-Chips; Envigo Teklad) and maintained on a 12 h light/dark cycle. Environmental conditions were controlled at 20–26 °C (68–79 °F) with 30–70% relative humidity. […] Male and female Sprague Dawley outbred rats were randomly assigned to treatment and control groups using a simple randomization procedure to ensure a balanced distribution of baseline weights across all cohorts. […] For TK studies, blood was collected from animals at 6 time points post dose on Day 1 (0.5, 1, 2, 4, 8, and 24 h) and on Day 7 (0.5, 2, 8, 24, 48, and 96 h). Drug levels were determined in collected plasma samples using bioanalytical method developed at SRI. The plasma drug level data were analyzed using Phoenix WinNonlin (version 8.3) software to perform noncompartmental data analysis.
smiles,measurement,setting,value
"O=C1C(O)=C([C@H]2CC[C@H](c3ccc(Cl)cc3)CC2)C(=O)c2ccccc21 [ATV, atovaquone]",IC50,[1],~2000 nM
O=c1c2ccc(Oc3ccc(OC(F)(F)F)cc3)cc2[nH]c2cc(Cl)cc(F)c12 [T111],IC50,[2]; DR1 (ART-R),0.11 nM
same,IC50,[2]; Dd2,0.028 nM
same,% survival through Day 28,[3]; TQ 0 + T111 20 mg/kg,0%
same,number of mice cured on Day 28,[3]; TQ 0 + T111 20 mg/kg,0/4
same,parasitemia burden on Day 5,[3]; TQ 0 + T111 20 mg/kg,0
same,% survival through Day 28,[3]; TQ 0 + T111 30 mg/kg,0%
same,number of mice cured on Day 28,[3]; TQ 0 + T111 30 mg/kg,0/4
same,parasitemia burden on Day 5,[3]; TQ 0 + T111 30 mg/kg,0
same,% survival through Day 28,[3]; TQ 0 + T111 40 mg/kg,25%
same,parasitemia burden on Day 5,[3]; TQ 0 + T111 40 mg/kg,0
same,number of mice cured on Day 28,"[3]; TQ 0 + T111 40 mg/kg, 40 mg/kg",One of four mice and 1/4
same,% survival through Day 28,[3]; TQ 0 + T111 50 mg/kg,100%
same,parasitemia burden on Day 5,[3]; TQ 0 + T111 50 mg/kg,0
same,number of mice cured on Day 28,"[3]; TQ 0 + T111 50 mg/kg, 50 mg/kg",all of four mice and single-dose cure in all treated mice and 4/4
same,inhibition of formation of stage V gametocytes,[4]; 1 µM,75%
same,inhibition of formation of stage V gametocytes,[4]; 10 µM,93%
same,protection from liver-stage infection,[5]; 1 mg/kg/day oral,did not clear liver-stage infection
same,protection from liver-stage infection,[5]; 4 mg/kg/day oral,did not clear liver-stage infection
same,protection from liver-stage infection,[5]; 10 mg/kg/day oral,full protection
same,tolerability,[6],"well tolerated, albeit with minor clinical signs"
